In ChEMBL document CHEMBL1149896, “Abietane diterpenoids from Clerodendrum bungei” (J Nat Prod, 2008):

Legend:
B16 = assay: Cytotoxicity against mouse B16 cells after 48 hrs by MTT assay; assay type: functional, cell-based; conditions: B16, 48 h
HGC-27 = assay: Cytotoxicity against human HGC27 cells after 48 hrs by MTT assay; assay type: functional, cell-based; conditions: HGC-27, 48 h
HEK293 [1] = assay: Cytotoxicity against HEK293 cells after 48 hrs by MTT assay; assay type: cell-based; conditions: Homo sapiens, HEK293, 48 h
HEK293 [2] = assay: Cell cycle arrest in HEK293 cells assessed as accumulation at G2/M phase at 5 nM after 24 hrs by flow cytometry; assay type: functional, Homo sapiens
HEK293 [3] = assay: Cell cycle arrest in HEK293 cells assessed as accumulation at G1 phase at 5 uM after 24 hrs by flow cytometry; assay type: functional, Homo sapiens
HEK293 [4] = assay: Cell cycle arrest in HEK293 cells assessed as accumulation at S phase at 10 uM after 24 hrs by flow cytometry; assay type: functional, Homo sapiens
HEK293 [5] = assay: Cell cycle arrest in HEK293 cells assessed as accumulation at S phase at 2.5 uM after 24 hrs by flow cytometry; assay type: functional, Homo sapiens
HEK293 [6] = assay: Cell cycle arrest in HEK293 cells assessed as accumulation at G2/M phase at 5 uM after 24 hrs by flow cytometry; assay type: functional, Homo sapiens
HEK293 [7] = assay: Cell cycle arrest in HEK293 cells assessed as accumulation at G2/M phase at 0.5 uM after 24 hrs by flow cytometry; assay type: functional, Homo sapiens
HEK293 [8] = assay: Cell cycle arrest in HEK293 cells assessed as accumulation at G1 phase at 0.5 […] after 24 hrs by flow cytometry; assay type: functional, Homo sapiens
HEK293 [9] = assay: Cell cycle arrest in HEK293 cells assessed as accumulation at G1 phase at 10 uM after 24 hrs by flow cytometry; assay type: functional, Homo sapiens
HEK293 [10] = assay: Cell cycle arrest in HEK293 cells assessed as accumulation at G1 phase at 5 nM after 24 hrs by flow cytometry; assay type: functional, Homo sapiens
HEK293 [11] = assay: Cell cycle arrest in HEK293 cells assessed as accumulation at G2/M phase at 2.5 uM after 24 hrs by flow cytometry; assay type: functional, Homo sapiens
HEK293 [12] = assay: Cell cycle arrest in HEK293 cells assessed as accumulation at S phase at 5 uM after 24 hrs by flow cytometry; assay type: functional, Homo sapiens
HEK293 [13] = assay: Cell cycle arrest in HEK293 cells assessed as accumulation at G1 phase at 2.5 uM after 24 hrs by flow cytometry; assay type: functional, Homo sapiens
HEK293 [14] = assay: Cell cycle arrest in HEK293 cells assessed as accumulation at G2/M phase at 10 uM after 24 hrs by flow cytometry; assay type: functional, Homo sapiens
HEK293 [15] = assay: Cell cycle arrest in HEK293 cells assessed as accumulation at S phase at 0.5 uM after 24 hrs by flow cytometry; assay type: functional, Homo sapiens
HEK293 [16] = assay: Cell cycle arrest in HEK293 cells assessed as accumulation at S phase at 5 nM after 24 hrs by flow cytometry; assay type: functional, Homo sapiens

C[C@H](CO)c1cc2c(c(O)c1O[C@@H]1O[C@H](CO)[C@@H](O)[C@H](O)[C@H]1O)[C@@]1(C)CCC[C@](C)(CO[C@@H]3O[C@H](CO)[C@@H](O)[C@H](O)[C@H]3O)[C@@H]1CC2
IC50 (B16): > 10 µM | IC50 (HGC-27): > 10 µM | IC50 (HEK293 [1]): > 10 µM

C[C@H](CO)c1cc2c(c(O)c1O[C@@H]1O[C@H](CO)[C@@H](O)[C@H](O)[C@H]1O)[C@@]1(C)CCC[C@](C)(C(=O)O[C@@H]3O[C@H](CO)[C@@H](O)[C@H](O)[C@H]3O)[C@@H]1CC2
IC50 (B16): > 10 µM | IC50 (HGC-27): > 10 µM | IC50 (HEK293 [1]): > 10 µM

CC1=C(C(=O)O)[C@@H]2CC(=O)c3cc(CC(C)O)c(O[C@@H]4O[C@H](CO)[C@@H](O)[C@H](O)[C@H]4O)c(O)c3[C@@]2(C)CC1 (some centres undefined)
IC50 (B16): > 10 µM | IC50 (HGC-27): > 10 µM | IC50 (HEK293 [1]): > 10 µM

CC1=C(CO)C2=CC(=O)c3c(c(O)c4oc(C)cc4c3O)[C@@]2(C)CC1=O
IC50 (B16): > 10 µM | IC50 (HGC-27): > 10 µM | IC50 (HEK293 [1]): > 10 µM

CC1=C(C)C2=CC(=O)c3c(O)c4c(c(O)c3[C@@]2(C)CC1)OC(C)C4 (some centres undefined)
IC50 (B16): 6.4 µM | Activity (HEK293 [2]): 16.14% | Activity (HEK293 [3]): 29.5% | Activity (HEK293 [4]): 42.62% | Activity (HEK293 [5]): 40.45% | Activity (HEK293 [6]): 23.92% | Activity (HEK293 [7]): 23.57% | IC50 (HGC-27): 5.3 µM | Activity (HEK293 [8]): 45.43% | Activity (HEK293 [9]): 22.5% | Activity (HEK293 [10]): 50.14% | IC50 (HEK293 [1]): 1.2 µM | Activity (HEK293 [11]): 16.12% | Activity (HEK293 [12]): 46.58% | Activity (HEK293 [13]): 43.44% | Activity (HEK293 [14]): 34.88% | Activity (HEK293 [15]): 31.01% | Activity (HEK293 [16]): 33.72%

C[C@H](CO)c1cc2c(c(O)c1O[C@@H]1O[C@H](CO)[C@@H](O)[C@H](O)[C@H]1O)[C@@]1(C)CC[C@H](O[C@@H]3O[C@H](CO)[C@@H](O)[C@H](O)[C@H]3O)C(C)(C)[C@@H]1CC2
IC50 (B16): > 10 µM | IC50 (HGC-27): > 10 µM | IC50 (HEK293 [1]): > 10 µM

CC1=C(C)C2=CC(=O)c3c(c(O)c4oc(C)cc4c3O)[C@@]2(C)CC1=O
IC50 (B16): > 10 µM | IC50 (HGC-27): > 10 µM | IC50 (HEK293 [1]): > 10 µM

C[C@H](CO)c1cc2c(c(O)c1O[C@@H]1O[C@H](CO)[C@@H](O)[C@H](O)[C@H]1O)[C@@]1(C)CC[C@H](O)C(C)(C)[C@@H]1CC2
IC50 (B16): > 10 µM | IC50 (HGC-27): > 10 µM | IC50 (HEK293 [1]): > 10 µM
